Experimental data published in US20260022142A1, “MACROCYCLIC IMMUNOMODULATORS” (Bristol-Myers Squibb Company, priority 2022, published 2026).
Bridge positions count the residues as written; N and C are the ends. Square brackets hold non-standard residues; d marks the D form. Peptide text beside a SMILES is read from it. * marks the point of attachment. ξ: configuration not given here. Bip = N[C@@H](Cc1ccc(-c2ccccc2)cc1)C(=O)O; Ala(2-furyl) = N[C@@H](Cc1ccco1)C(=O)O; Phe(3-Me) = Cc1cccc(C[C@H](N)C(=O)O)c1; Val(3-OH) = CC(C)(O)[C@H](N)C(=O)O; hhPhe = N[C@@H](CCCc1ccccc1)C(=O)O; hArg = N=C(N)NCCCC[C@H](N)C(=O)O; Abu(4-CN) = N#CCC[C@H](N)C(=O)O; Cha = N[C@@H](CC1CCCCC1)C(=O)O; Cit = NC(=O)NCCC[C@H](N)C(=O)O; Thr(3ξ) = CC(O)[C@H](N)C(=O)O; hSer = N[C@@H](CCO)C(=O)O; Carboxymethyl = O=C(O)C*; Orn = NCCC[C@H](N)C(=O)O; Aun = NCCCCCCCCCCC(=O)O; Dab = NCC[C@H](N)C(=O)O

These compounds were tested against T1, PD-1/PD-L1 interaction (PE-labeled human PD-L1-Ig binding to Jurkat cell line over-expressing human PD-1) (Homo sapiens, UniProt Q15116) (assay: Jurkat-PD-1 Cell Binding High-Content Screening Assay (CBA)). Conditions: Jurkat cell line over-expressing human PD-1; PE-labeled PD-L1-Ig 20 nM final; read-out: Jurkat hPD1-PDL1 IC50.
T1 construct: expressed in transfected cells; host or cells: Jurkat
Type: cell-based
Outline: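 Jurkat-hPD-1 cells, DMEM/10% FCS; cpd 2 h 37° C; PE-PD-L1-Ig 20 nM final, 1 h; 4% PFA fix + Hoechst 33342, 3× dPBS wash; high-content imaging read-out.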

T1 sequence (Q15116 25-288): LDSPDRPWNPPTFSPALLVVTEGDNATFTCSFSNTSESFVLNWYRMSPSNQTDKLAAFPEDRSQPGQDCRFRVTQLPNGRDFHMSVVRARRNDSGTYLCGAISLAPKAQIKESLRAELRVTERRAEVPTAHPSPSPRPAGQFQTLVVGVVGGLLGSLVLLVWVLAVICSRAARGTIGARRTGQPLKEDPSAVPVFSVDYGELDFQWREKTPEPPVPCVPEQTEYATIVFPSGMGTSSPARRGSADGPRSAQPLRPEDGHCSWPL

Row | Structure (SMILES) | IC50
1 | CC(C)C[C@H]1NC(=O)[C@H](CCCN)NC(=O)[C@H](Cc2ccc(O)cc2)NC(=O)[C@H](Cc2ccc(-c3ccccc3)cc2)NC(=O)[C@H](C(C)C)NC(=O)[C@H](Cc2c[nH]c3ccccc23)NC(=O)[C@H](CC(=O)O)NC(=O)[C@H](Cc2ccc(OCC(=O)O)cc2)NC(=O)[C@H](CCCCNC(=N)N)NC(=O)CSC[C@@H](C(=O)N[C@@H](CCN)C(=O)NCCCCCCCCCCC(=O)O)NC(=O)[C@H](CCO)NC(=O)[C@H](C(C)C)NC(=O)[C@H](CC2CCCCC2)NC(=O)[C@H](CCN)NC1=O [Compound 3408] ({CH2CO}-[hArg]Y(Carboxymethyl)DWV[Bip]Y[Orn][dL][Dab][Cha]V[hSer]C[Dab][Aun]-OH; thioether N-14) | 20.9 nM
2 | CC(=O)NCCCC[C@@H]1NC(=O)[C@H](C(C)C)NC(=O)[C@H](CC2CCCCC2)NC(=O)[C@H](CCN)NC(=O)[C@@H](CC(C)C)NC(=O)[C@H](CCCN)NC(=O)[C@H](Cc2ccc(O)cc2)NC(=O)[C@H](Cc2ccc(-c3ccccc3)cc2)NC(=O)[C@H](C(C)C)NC(=O)[C@H](Cc2c[nH]c3ccccc23)NC(=O)[C@H](CC(=O)O)NC(=O)[C@H](Cc2ccc(OCC(=O)O)cc2)NC(=O)[C@H](CCCCNC(=N)N)NC(=O)CSC[C@@H](C(=O)N[C@@H](CCN)C(=O)NCCCCCCCCCCC(=O)O)NC1=O [Compound 3409] ({CH2CO}-[hArg]Y(Carboxymethyl)DWV[Bip]Y[Orn][dL][Dab][Cha]VK(Ac)C[Dab][Aun]-OH; thioether N-14) | 15.6 nM
3 | CC(C)C[C@H]1NC(=O)[C@H](CCCN)NC(=O)[C@H](Cc2ccc(O)cc2)NC(=O)[C@H](Cc2ccc(-c3ccccc3)cc2)NC(=O)[C@H](C(C)C)NC(=O)[C@H](Cc2c[nH]c3ccccc23)NC(=O)[C@H](CC(=O)O)NC(=O)[C@H](Cc2ccc(OCC(=O)O)cc2)NC(=O)[C@H](CCCCNC(=N)N)NC(=O)CSC[C@@H](C(=O)N[C@@H](CCN)C(=O)NCCCCCCCCCCC(=O)O)NC(=O)[C@H](C(C)O)NC(=O)[C@H](C(C)C)NC(=O)[C@H](CC2CCCCC2)NC(=O)[C@H](CCN)NC1=O (stereo partly drawn) [Compound 3410] ({CH2CO}-[hArg]Y(Carboxymethyl)DWV[Bip]Y[Orn][dL][Dab][Cha]V[Thr(3ξ)]C[Dab][Aun]-OH; thioether N-14) | 20.2 nM
4 | CC(C)C[C@H]1NC(=O)[C@H](CCCN)NC(=O)[C@H](Cc2ccc(O)cc2)NC(=O)[C@H](Cc2ccc(-c3ccccc3)cc2)NC(=O)[C@H](C(C)C)NC(=O)[C@H](Cc2c[nH]c3ccccc23)NC(=O)[C@H](CC(=O)O)NC(=O)[C@H](Cc2ccc(OCC(=O)O)cc2)NC(=O)[C@H](CCCNC(=N)N)NC(=O)CSC[C@@H](C(=O)N[C@@H](CCN)C(=O)NCCCCCCCCCCC(=O)O)NC(=O)[C@H](CCCNC(N)=O)NC(=O)[C@H](C(C)C)NC(=O)[C@H](CC2CCCCC2)NC(=O)[C@H](CCN)NC1=O [Compound 3411] ({CH2CO}-RY(Carboxymethyl)DWV[Bip]Y[Orn][dL][Dab][Cha]V[Cit]C[Dab][Aun]-OH; thioether N-14) | 11 nM
5 | CC(C)C[C@H]1NC(=O)[C@H](CCCN)NC(=O)[C@H](Cc2ccc(O)cc2)NC(=O)[C@H](Cc2ccc(-c3ccccc3)cc2)NC(=O)[C@H](C(C)C)NC(=O)[C@H](Cc2c[nH]c3ccccc23)NC(=O)[C@H](CC(=O)O)NC(=O)[C@H](Cc2ccc(OCC(=O)O)cc2)NC(=O)[C@H](CCCNC(=N)N)NC(=O)CSC[C@@H](C(=O)N[C@@H](CCN)C(=O)NCCCCCCCCCCC(=O)O)NC(=O)[C@H](CCO)NC(=O)[C@H](C(C)C)NC(=O)[C@H](CC2CCCCC2)NC(=O)[C@H](CCN)NC1=O [Compound 3412] ({CH2CO}-RY(Carboxymethyl)DWV[Bip]Y[Orn][dL][Dab][Cha]V[hSer]C[Dab][Aun]-OH; thioether N-14) | 16.4 nM
6 | CC(C)C[C@H]1NC(=O)[C@H](CCCN)NC(=O)[C@H](Cc2ccc(O)cc2)NC(=O)[C@H](Cc2ccc(-c3ccccc3)cc2)NC(=O)[C@H](C(C)C)NC(=O)[C@H](Cc2c[nH]c3ccccc23)NC(=O)[C@H](CC(=O)O)NC(=O)[C@H](Cc2ccc(OCC(=O)O)cc2)NC(=O)[C@H](CCCNC(=N)N)NC(=O)CSC[C@@H](C(=O)N[C@@H](CCN)C(=O)NCCCCCCCCCCC(=O)O)NC(=O)[C@H](C(C)O)NC(=O)[C@H](C(C)C)NC(=O)[C@H](CC2CCCCC2)NC(=O)[C@H](CCN)NC1=O (stereo partly drawn) [Compound 3413] ({CH2CO}-RY(Carboxymethyl)DWV[Bip]Y[Orn][dL][Dab][Cha]V[Thr(3ξ)]C[Dab][Aun]-OH; thioether N-14) | 33.3 nM
7 | CC(C)C[C@H]1NC(=O)[C@H](CCCN)NC(=O)[C@H](Cc2ccc(O)cc2)NC(=O)[C@H](Cc2ccc(-c3ccccc3)cc2)NC(=O)[C@H](C(C)C)NC(=O)[C@H](Cc2c[nH]c3ccccc23)NC(=O)[C@H](CC(=O)O)NC(=O)[C@H](Cc2ccc(OCC(=O)O)cc2)NC(=O)[C@H](C(C)(C)O)NC(=O)CSC[C@@H](C(=O)N[C@@H](CCN)C(=O)NCCCCCCCCCCC(=O)O)NC(=O)[C@H](C(C)O)NC(=O)[C@H](C(C)C)NC(=O)[C@H](CC2CCCCC2)NC(=O)[C@H](CCN)NC1=O (stereo partly drawn) [Compound 3414] ({CH2CO}-[Val(3-OH)]Y(Carboxymethyl)DWV[Bip]Y[Orn][dL][Dab][Cha]V[Thr(3ξ)]C[Dab][Aun]-OH; thioether N-14) | 73.7 nM
8 | CC(C)C[C@H]1NC(=O)[C@H](CCCN)NC(=O)[C@H](Cc2ccc(O)cc2)NC(=O)[C@H](Cc2ccc(-c3ccccc3)cc2)NC(=O)[C@H](C(C)C)NC(=O)[C@H](Cc2c[nH]c3ccccc23)NC(=O)[C@H](CC(=O)O)NC(=O)[C@H](Cc2ccc(OCC(=O)O)cc2)NC(=O)[C@H](CCCNC(=N)N)NC(=O)CSC[C@@H](C(=O)N[C@@H](CCN)C(=O)NCCCCCCCCCCC(=O)O)NC(=O)[C@H](Cc2ccco2)NC(=O)[C@H](C(C)C)NC(=O)[C@H](CC2CCCCC2)NC(=O)[C@H](CCN)NC1=O [Compound 3415] ({CH2CO}-RY(Carboxymethyl)DWV[Bip]Y[Orn][dL][Dab][Cha]V[Ala(2-furyl)]C[Dab][Aun]-OH; thioether N-14) | 73.6 nM
9 | CC(C)C[C@H]1NC(=O)[C@H](CCCN)NC(=O)[C@H](Cc2ccc(O)cc2)NC(=O)[C@H](Cc2ccc(-c3ccccc3)cc2)NC(=O)[C@H](C(C)C)NC(=O)[C@H](Cc2c[nH]c3ccccc23)NC(=O)[C@H](CC(=O)O)NC(=O)[C@H](Cc2ccc(OCC(=O)O)cc2)NC(=O)[C@H](CCCNC(=N)N)NC(=O)CSC[C@@H](C(=O)N[C@@H](CCN)C(=O)NCCCCCCCCCCC(=O)O)NC(=O)[C@H](CCC#N)NC(=O)[C@H](C(C)C)NC(=O)[C@H](CC2CCCCC2)NC(=O)[C@H](CCN)NC1=O [Compound 3418] ({CH2CO}-RY(Carboxymethyl)DWV[Bip]Y[Orn][dL][Dab][Cha]V[Abu(4-CN)]C[Dab][Aun]-OH; thioether N-14) | 36.2 nM
10 | Cc1cccc(C[C@@H]2NC(=O)[C@H](CC(=O)O)NC(=O)[C@H](Cc3ccc(OCC(=O)O)cc3)NC(=O)[C@H](CCCNC(=N)N)NC(=O)CSC[C@@H](C(=O)N[C@@H](CCN)C(=O)NCCCCCCCCCCC(=O)O)NC(=O)[C@H](C(C)O)NC(=O)[C@H](C(C)C)NC(=O)[C@H](CC3CCCCC3)NC(=O)[C@H](CCN)NC(=O)[C@@H](CC(C)C)NC(=O)[C@H](CCCN)NC(=O)[C@H](Cc3ccc(O)cc3)NC(=O)[C@H](Cc3ccc(-c4ccccc4)cc3)NC(=O)[C@H](CCCc3ccccc3)NC2=O)c1 (stereo partly drawn) [Compound 3420] ({CH2CO}-RY(Carboxymethyl)D[Phe(3-Me)][hhPhe][Bip]Y[Orn][dL][Dab][Cha]V[Thr(3ξ)]C[Dab][Aun]-OH; thioether N-14) | 60.9 nM
